Experimental data: paper PMC11276849, “A Female-Biased Chemosensory Protein PxutCSP19 in the Antennae of Papilio xuthus Tuned to Host Volatiles and Insecticides” (Insects, 2024)
Read-outs that look alike come from different tables or passages of the source.

Columns and labels:
[1] = target: T1, PxutCSP19-T2 (Papilio xuthus, UniProt A0A194QJK0); assay: Fluorescence competitive binding assay (1-NPN displacement), truncated PxutCSP19-T2; details: for inhibition at 20 µM: T2 (35 N-terminal residues truncated), ligand at 20 μM, read-out: F.D. (fluorescent displacement rate of ligands); for Ki: Ki = [IC50]/(1 + [1-NPN]/K1-NPN)
T1 sequence (A0A194QJK0 53-142): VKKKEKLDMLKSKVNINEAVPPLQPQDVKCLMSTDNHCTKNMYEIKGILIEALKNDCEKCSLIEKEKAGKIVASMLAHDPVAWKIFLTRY
Description: (§1) In order to investigate the ligand-binding properties of PxutCSP19 to host odorants and insecticides, we first asked whether this fluorescent probe 1-NPN was available for the binding of PxutCSP19. To calculate the binding ability of PxutCSP19 to 1-NPN, we titrated different final concentrations of 1-NPN (2~20 μM) into Tris-HCl buffer (pH 7.4) containing 2 μM PxutCSP19. The binding constant (K1-NPN) of 1-NPN to this protein was determined with GraphPad Prism 7 (GraphPad Software Inc., San Diego, CA), as previously described. The solution was excited at 337 nm and the emission peak was monitored at 414 nm on an RF-5301PC spectrofluorometer (Shimadzu, Kyoto, Japan) using a quartz micro-cuvette filled with a 100 μL mixture, with 5 nm excitation and emission slit widths. If the host odorant molecules could displace more than 40% of the 1-NPN fluorescence from the binding cavity of PxutCSP19, the compounds would be continuously added up to 36 μM with triplicates. For the binding experiments, each compound would be added into the PxutCSP19/1-NPN (each 2 μM) complex with final concentrations of 2~20 μM. […] We used the Ki values to compare the binding affinities of various ligands with the equation: Ki = [IC50]/(1 + [1-NPN]/K1-NPN), where IC50 represents the ligand concentrations displacing one half of the initial protein/1-NPN fluorescence, and [1-NPN] is the free concentration of 1-NPN at 2 μM.
(§2) To determine the effects of an extended N-terminal sequence (approximately 35 amino acids) on the binding specificity of PxutCSP19 to ligands, we next constructed two truncated PxutCSP19s. Firstly, the front 17 amino acids (i.e., EITIGGIERTMSPGVKS, defined as PxutCSP19-T1) and the front 35 amino acids (i.e., […], defined as PxutCSP19-T2) of the N-terminal region without the signal peptide were truncated, respectively. Secondly, the two truncated ORFs (PxutCSP19-T1: 360 bp and PxutCSP19-T2: 306 bp) of PxutCSP19s were separately amplified using RT–PCR with gene-specific primers (Table S2). After that, the amplified products were sub-cloned into pET-30a (+), i.e., pET-30a (+)/PxutCSP19-T1 and pET-30a (+)/PxutCSP19-T2. Using the above-described methods for the expression and purification of proteins, we obtained two truncated proteins. Furthermore, the binding characteristics of the truncated PxutCSP19s to ligands with high affinities were investigated, representing six host odorants and eight insecticides.

[2] = target: PxutCSP19 (Papilio xuthus, UniProt A0A194QJK0); assay: Fluorescence competitive binding assay (1-NPN displacement), wildtype PxutCSP19; details: for inhibition at 20 µM: read-out: F.D. (fluorescent displacement rate of ligands), Wildtype (WT); for inhibition at 20 µM / F.D. (fluorescent displacement rate of ligands): ligand at 20 μM, PxutCSP19/1-NPN each 2 μM, NB = no binding; for 1-NPN fluorescence displaced: wildtype, ligand at 36 μM
From the text: The open reading frame (ORF) of PxutCSP19 was cloned with a PrimeSTAR®® Max DNA Polymerase (TaKaRa, Liaoning, Dalian, China) and gene-specific primers containing restriction enzyme sites (BamH I and Xho I) (Table S2). The PCR products were detected on a 1.5% (w/v) agarose gel, and the expected bands were cut and purified using a HiPure Gel Pure DNA Mini Kit (Magen, Guangzhou, China). Next, BamH I and Xho I were used to digest the PxutCSP19 products and pET-30a (+) plasmids, followed by purification. A T4 DNA ligase (Thermo Fisher Scientific, Waltham, MA, USA) was applied to the construction of the recombinant plasmids pET-30a (+)/PxutCSP19. After being confirmed by sequencing, the plasmids were transformed into BL21 (DE3) competent cells so as to express recombinant proteins with 1.0 mM isopropyl β-D-thiogalactoside (IPTG). Because this recombinant protein pET-30a (+)/PxutCSP19 was insoluble, we applied a protein denaturation–renaturation approach to purify PxutCSP19 with an affinity chromatography technique, in which the denaturation buffer included 8 M urea and 1.0 mM β-mercaptoethanol.
as §1

[3] = target: T2, PxutCSP19-T1 (Papilio xuthus, UniProt A0A194QJK0); assay: Fluorescence competitive binding assay (1-NPN displacement), truncated PxutCSP19-T1; details: for inhibition at 20 µM: T1 (17 N-terminal residues truncated), ligand at 20 μM, read-out: F.D. (fluorescent displacement rate of ligands); for Ki: Ki = [IC50]/(1 + [1-NPN]/K1-NPN)
T2 sequence (A0A194QJK0 35-142): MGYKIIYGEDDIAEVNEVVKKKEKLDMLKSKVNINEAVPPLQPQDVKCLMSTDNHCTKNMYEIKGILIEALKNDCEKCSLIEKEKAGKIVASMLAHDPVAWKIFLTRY
Description: as §1, §2

[4] = Wildtype (WT), ligand up to 20 μM or 36 μM, displacing half of protein/1-NPN fluorescence, read-out: IC50

PxutCSP19, sequence (A0A194QJK0 entry or part of it): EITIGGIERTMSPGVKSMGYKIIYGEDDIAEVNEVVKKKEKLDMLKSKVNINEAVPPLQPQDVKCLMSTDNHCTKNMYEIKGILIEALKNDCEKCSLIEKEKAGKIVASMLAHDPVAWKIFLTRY

Compound	IC50 [2]	inhibition at 20 µM [2]	also measured
C=CC(C)(O)CCC=C(C)C (stereo not drawn) [Linalool]	33.8 ± 0.84 µM	> 40%	inhibition at 20 µM [1]: 40.3%; Ki ([1]; T2): 22.8 ± 0.59 µM; IC50 ([1]; T2, read-out: IC50): 34.6 ± 0.9 µM; inhibition at 20 µM [3]: 39.8%; Ki ([3]; T1): 20.8 ± 0.85 µM; IC50 ([3]; T1, read-out: IC50): 33.1 ± 1.34 µM
CC(C)=CCC/C(C)=C\CO [Nerol]	34 ± 1.46 µM	> 40%	inhibition at 20 µM [1]: 40.8%; Ki ([1]; T2): 22.2 ± 0.56 µM; IC50 ([1]; T2, read-out: IC50): 33.8 ± 0.85 µM; inhibition at 20 µM [3]: 39.4%; Ki ([3]; T1): 21.84 ± 0.02 µM; IC50 ([3]; T1, read-out: IC50): 34.75 ± 0.03 µM
CCOP(=S)(OCC)Oc1nc(Cl)c(Cl)cc1Cl [Chlorpyrifos]	5.52 ± 0.16 µM	75.1%	IC50 [1]: 5.32 ± 0.4 µM; inhibition at 20 µM [1]: 73.2%; IC50 [3]: 5.87 ± 0.47 µM; inhibition at 20 µM [3]: 70.3%
CCCCCCCCO [1-Octanol]	34.5 ± 1.11 µM	> 40%	inhibition at 20 µM [1]: 42.7%; Ki ([1]; T2): 22.8 ± 0.42 µM; IC50 ([1]; T2, read-out: IC50): 34.6 ± 0.64 µM; inhibition at 20 µM [3]: 43.5%; Ki ([3]; T1): 21.7 ± 0.44 µM; IC50 ([3]; T1, read-out: IC50): 34.5 ± 0.7 µM
COC(=O)N(C(=O)N1CO[C@@]2(C(=O)OC)Cc3cc(Cl)ccc3C2=N1)c1ccc(OC(F)(F)F)cc1 [Indoxacarb]	10.8 ± 0.65 µM	61.5%	inhibition at 20 µM [1]: 62.5%; Ki ([1]; T2): 7.98 ± 0.37 µM; IC50 ([1]; T2, read-out: IC50): 12.1 ± 0.56 µM; inhibition at 20 µM [3]: 59.1%; Ki ([3]; T1): 7.08 ± 0.26 µM; IC50 ([3]; T1, read-out: IC50): 11.3 ± 0.41 µM
CCOCn1c(-c2ccc(Cl)cc2)c(C#N)c(Br)c1C(F)(F)F [Chlorfenapyr]	10.71 ± 0.09 µM	58.7%	inhibition at 20 µM [1]: 64.3%; Ki ([1]; T2): 6.68 ± 0.45 µM; IC50 ([1]; T2, read-out: IC50): 10.1 ± 0.68 µM; inhibition at 20 µM [3]: 63.8%; Ki ([3]; T1): 6.47 ± 0.27 µM; IC50 ([3]; T1, read-out: IC50): 10.3 ± 0.43 µM
O=C(NC(=O)c1c(F)cccc1F)Nc1cc(Cl)c(Oc2ncc(C(F)(F)F)cc2Cl)c(Cl)c1 [Chlorfluazuron]	11.9 ± 1.04 µM	60.5%	inhibition at 20 µM [1]: 57%; Ki ([1]; T2): 8.88 ± 0.4 µM; IC50 ([1]; T2, read-out: IC50): 13.5 ± 0.6 µM; inhibition at 20 µM [3]: 54.7%; Ki ([3]; T1): 7.99 ± 0.94 µM; IC50 ([3]; T1, read-out: IC50): 12.7 ± 1.49 µM
COc1cc(C=O)cc(OC)c1O [Syringaldehyde]	31 ± 0.97 µM	> 40%	inhibition at 20 µM [1]: 42.2%; Ki ([1]; T2): 18.8 ± 0.74 µM; IC50 ([1]; T2, read-out: IC50): 28.6 ± 1.12 µM; inhibition at 20 µM [3]: 42.7%; Ki ([3]; T1): 17.7 ± 0.84 µM; IC50 ([3]; T1, read-out: IC50): 28.1 ± 1.33 µM
CC1(C)C(C=C(Cl)Cl)C1C(=O)OC(C#N)c1cccc(Oc2ccccc2)c1 (stereo not drawn) [α-Cypermethrin, reference compound]	> 20 µM	5.65%	–
C/C1=C\CC/C(C)=C/CC(C)(C)/C=C/C1 [α-Caryophyllene]	–	–	F.D. (fluorescent displacement rate of ligands) ([2]; Wildtype (WT)): 7.48%; IC50 [2, 4]: > 20 µM
CN(C)C(CSS(=O)(=O)O)CSS(=O)(=O)O [Monosultap]	–	53.6%	inhibition at 20 µM [1]: 61%; Ki ([1]; T2): 11.8 ± 0.67 µM; IC50 ([1]; T2, read-out: IC50): 17.9 ± 1.02 µM; Ki ([2]; Wildtype (WT), Ki = [IC50]/(1 + [1-NPN]/K1-NPN)): 11.1 ± 0.66 µM; IC50 ([2]; Wildtype (WT), ligand up to 20 μM or 36 μM, displacing half of protein/1-NPN fluorescence): 16.8 ± 1.01 µM; inhibition at 20 µM [3]: 54.8%; Ki ([3]; T1): 11.1 ± 0.46 µM; IC50 ([3]; T1, read-out: IC50): 17.6 ± 0.73 µM
CCCCCCCC=O [Octanal]	> 20 µM	22.8%	–
Emamectin benzoate [reference compound]	–	–	F.D. (fluorescent displacement rate of ligands) ([2]; Wildtype (WT)): 46.98%; IC50 [2, 4]: > 20 µM
COP(=O)(NC(C)=O)SC (stereo not drawn) [Acephate, reference compound]	> 20 µM	37.1%	–
CCCSP(=O)(OCC)Oc1ccc(Br)cc1Cl (stereo not drawn) [Profenofos, reference compound]	> 20 µM	41%	–
CC1=CCC2C(C1)C2(C)C (stereo not drawn) [3-Carene]	> 20 µM	35.1%	–
C=CC(=C)CCC=C(C)C [Myrcene]	> 20 µM	32.4%	–
CC1=CCC(C(C)C)=CC1 [γ-Terpinene]	> 36 µM	> 40%	1-NPN fluorescence displaced [2]: less than 50%
C=C1CCC2CC1C2(C)C (stereo not drawn) [β-Pinene]	> 20 µM	31.2%	–
C=C(C)[C@H]1CC=C(C)CC1 [Limonene]	–	–	F.D. (fluorescent displacement rate of ligands) ([2]; Wildtype (WT)): 20.36%; IC50 [2, 4]: > 20 µM

Compound	IC50 [2]	inhibition at 20 µM [2]	also measured
CCCCCC=O [Hexanal]	> 20 µM	21.1%	–
O=C(NC(=O)c1ccccc1Cl)Nc1ccc(OC(F)(F)F)cc1 [Triflumuron, reference compound]	> 20 µM	28%	–
CNC(=O)c1cc(Cl)cc(C)c1NC(=O)c1cc(Br)nn1-c1ncccc1Cl [Chlorantraniliprole, reference compound]	> 20 µM	43.6%	–
COP(=O)(OC)C(O)C(Cl)(Cl)Cl (stereo not drawn) [Trichlorphon, reference compound]	–	–	F.D. (fluorescent displacement rate of ligands) ([2]; Wildtype (WT)): 33.61%; IC50 [2, 4]: > 20 µM
CS/C(C)=N\OC(=O)N(C)SN(C)C(=O)O/N=C(\C)SC [Thiodicarb, reference compound]	> 20 µM	37.4%	–
CC1(C)[C@H]2O[C@H]2[C@H]2[C@](C)(O)[C@@H]3CC[C@@H]4[C@@H](O)[C@@]3(C[C@@H](O)[C@@]21O)C[C@@]4(C)O [Rhodojaponin III, reference compound]	–	–	F.D. (fluorescent displacement rate of ligands) ([2]; Wildtype (WT)): 38.52%; IC50 [2, 4]: > 20 µM
c1ccc2[nH]ccc2c1 [Indole]	> 20 µM	39%	–
CNC(=O)ON=C(C)SC [Methomyl, reference compound]	> 20 µM	45.4%	–
CC(C)=CCC/C(C)=C/C=O [Citral]	> 20 µM	39.7%	–
O=[N+]([O-])NC1=NCCN1Cc1ccc(Cl)nc1 [Imidacloprid, reference compound]	> 20 µM	41.7%	–
CC(C)=CCC/C(C)=C/CO [Geraniol]	–	39%	–
CN1COCN(Cc2cnc(Cl)s2)/C1=N\[N+](=O)[O-] [Thiamethoxam, reference compound]	> 20 µM	44.6%	–
O=CCc1ccccc1 [Phenylacetaldehyde]	> 20 µM	27.3%	–
CCOC(C)=O [Ethyl acetate]	> 20 µM	37.6%	–
O=C(NC(=O)c1c(F)cccc1F)Nc1ccc(Cl)cc1 [Diflubenzuron, reference compound]	> 20 µM	27%	–
C=CC(C)(O)CCC=C(C)CCC=C(C)C (mixture of isomers) [Nerolidol]	> 20 µM	12.4%	–
CCCCCCO [1-Hexanol]	> 20 µM	39%	–
CC1=CCC(O)(C(C)C)CC1 (stereo not drawn) [4-Terpineol]	> 36 µM	> 40%	1-NPN fluorescence displaced [2]: less than 50%
CCC/C=C/CO [(E)-2-Hexen-1-ol]	> 20 µM	35.6%	–
